Assay results reported in ChEMBL document CHEMBL3132769, “Fragment growing to retain or alter the selectivity of anchored kinase hinge-binding fragments” (Medchemcomm, 2014).

How the values were obtained:
[1] = molecular target: T1, Serine/threonine-protein kinase DCLK2 (Homo sapiens) (UniProt Q8N568); assay: Inhibition of human full length DCAMKL2 expressed in baculovirus assessed as substrate phosphorylation using fluorescence-labelled peptides as substrate at 0.2 uM after 90 mins by microfluidic peptide phosphorylation assay
T1 sequence (whole entry): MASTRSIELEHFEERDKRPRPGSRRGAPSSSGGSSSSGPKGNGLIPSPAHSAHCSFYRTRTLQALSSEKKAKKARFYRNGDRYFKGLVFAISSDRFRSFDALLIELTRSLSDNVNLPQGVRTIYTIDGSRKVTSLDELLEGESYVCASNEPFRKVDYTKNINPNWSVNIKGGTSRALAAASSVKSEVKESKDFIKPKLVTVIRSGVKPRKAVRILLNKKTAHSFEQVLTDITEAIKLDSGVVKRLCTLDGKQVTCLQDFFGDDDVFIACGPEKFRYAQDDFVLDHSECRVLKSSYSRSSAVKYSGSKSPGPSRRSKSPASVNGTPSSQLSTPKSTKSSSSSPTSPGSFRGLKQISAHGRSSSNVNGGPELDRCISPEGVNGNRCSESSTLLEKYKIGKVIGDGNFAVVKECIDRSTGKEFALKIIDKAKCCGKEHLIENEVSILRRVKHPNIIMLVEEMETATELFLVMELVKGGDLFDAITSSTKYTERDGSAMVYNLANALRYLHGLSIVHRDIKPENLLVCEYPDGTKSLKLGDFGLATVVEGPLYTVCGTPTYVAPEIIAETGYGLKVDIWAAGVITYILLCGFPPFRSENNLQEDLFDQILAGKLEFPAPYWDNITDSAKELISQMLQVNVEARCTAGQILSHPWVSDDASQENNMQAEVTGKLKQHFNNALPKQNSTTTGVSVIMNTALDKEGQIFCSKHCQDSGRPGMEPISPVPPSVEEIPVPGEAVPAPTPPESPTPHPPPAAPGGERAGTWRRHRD

[2] = molecular target: T2, MAP kinase-activated protein kinase 5 (Homo sapiens) (UniProt Q8IW41); assay: Inhibition of human full length PRAK expressed in baculovirus assessed as substrate phosphorylation using fluorescence-labelled peptides as substrate at 0.2 uM after 90 mins by microfluidic peptide phosphorylation assay
T2 sequence (whole entry): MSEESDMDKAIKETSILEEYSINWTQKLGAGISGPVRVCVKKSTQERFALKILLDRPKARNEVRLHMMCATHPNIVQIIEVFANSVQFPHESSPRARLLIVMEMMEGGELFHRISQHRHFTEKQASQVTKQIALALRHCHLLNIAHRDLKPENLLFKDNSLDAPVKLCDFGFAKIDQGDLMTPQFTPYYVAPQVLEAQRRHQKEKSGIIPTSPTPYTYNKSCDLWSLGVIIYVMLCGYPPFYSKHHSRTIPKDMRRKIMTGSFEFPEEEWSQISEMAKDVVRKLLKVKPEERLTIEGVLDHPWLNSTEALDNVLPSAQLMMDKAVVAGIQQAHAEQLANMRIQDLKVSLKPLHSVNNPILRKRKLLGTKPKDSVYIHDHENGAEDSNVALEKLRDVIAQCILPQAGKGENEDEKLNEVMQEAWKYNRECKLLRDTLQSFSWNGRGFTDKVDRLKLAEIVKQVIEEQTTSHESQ

[3] = molecular target: Protein kinase C beta type (Homo sapiens) (UniProt P05771); assay: Inhibition of human truncated PKC beta1 expressed in baculovirus assessed as substrate phosphorylation using fluorescence-labelled peptides as substrate at […] after 90 mins by microfluidic peptide phosphorylation assay
[4] = molecular target: Casein kinase I isoform alpha (Homo sapiens) (UniProt P48729); assay: Inhibition of human full length CSNK1A1 expressed in baculovirus assessed as substrate phosphorylation using fluorescence-labelled peptides as substrate at […] after 90 mins by microfluidic peptide phosphorylation assay
[5] = molecular target: T3, Mitogen-activated protein kinase 13 (Homo sapiens) (UniProt O15264); assay: Inhibition of human full length p38 delta expressed in Escherichia coli cell assessed as substrate phosphorylation using fluorescence-labelled peptides as substrate at 0.1 uM after 90 mins by microfluidic peptide phosphorylation assay
T3 sequence (whole entry): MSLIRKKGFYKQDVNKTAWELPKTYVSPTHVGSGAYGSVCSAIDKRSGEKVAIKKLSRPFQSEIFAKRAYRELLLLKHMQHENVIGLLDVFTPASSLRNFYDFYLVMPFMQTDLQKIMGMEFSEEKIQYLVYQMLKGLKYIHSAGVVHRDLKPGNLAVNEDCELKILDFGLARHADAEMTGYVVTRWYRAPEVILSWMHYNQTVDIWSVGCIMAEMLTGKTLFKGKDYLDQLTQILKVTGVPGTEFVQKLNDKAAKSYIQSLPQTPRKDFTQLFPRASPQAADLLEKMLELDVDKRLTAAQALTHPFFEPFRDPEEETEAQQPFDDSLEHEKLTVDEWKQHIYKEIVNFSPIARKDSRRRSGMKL

[6] = molecular target: RAF proto-oncogene serine/threonine-protein kinase (Homo sapiens) (UniProt P04049); assay: Inhibition of human truncated c-Raf expressed in baculovirus assessed as substrate phosphorylation using fluorescence-labelled peptides as substrate at 0.1 uM after 90 mins by microfluidic peptide phosphorylation assay
[7] = molecular target: RAF proto-oncogene serine/threonine-protein kinase (Homo sapiens) (UniProt P04049); assay: Inhibition of human truncated c-Raf expressed in baculovirus assessed as substrate phosphorylation using fluorescence-labelled peptides as substrate at 9 uM after 90 mins by microfluidic peptide phosphorylation assay
[8] = molecular target: T4, Calcium/calmodulin-dependent protein kinase type IV (Homo sapiens) (UniProt Q16566); assay: Inhibition of human full length CAMK4 expressed in baculovirus assessed as substrate phosphorylation using fluorescence-labelled peptides as substrate at 9 uM after 90 mins by microfluidic peptide phosphorylation assay
T4 sequence (whole entry): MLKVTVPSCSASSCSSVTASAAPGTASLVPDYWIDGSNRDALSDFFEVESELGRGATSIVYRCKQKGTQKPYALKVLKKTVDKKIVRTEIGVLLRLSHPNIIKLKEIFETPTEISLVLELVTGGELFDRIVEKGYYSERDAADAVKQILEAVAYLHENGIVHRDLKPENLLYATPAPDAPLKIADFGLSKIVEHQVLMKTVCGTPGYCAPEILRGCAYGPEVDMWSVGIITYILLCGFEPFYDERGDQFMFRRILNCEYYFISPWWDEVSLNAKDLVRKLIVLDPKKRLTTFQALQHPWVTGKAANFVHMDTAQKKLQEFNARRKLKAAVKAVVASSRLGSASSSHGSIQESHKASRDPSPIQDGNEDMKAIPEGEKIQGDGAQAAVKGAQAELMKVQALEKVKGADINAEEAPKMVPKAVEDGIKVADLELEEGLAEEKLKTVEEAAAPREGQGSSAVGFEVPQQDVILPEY

[9] = molecular target: Hepatocyte growth factor receptor (Homo sapiens) (UniProt P08581); assay: Inhibition of human MET cytoplasmic domain expressed in baculovirus assessed as substrate phosphorylation using fluorescence-labelled peptides as substrate at 8 uM after 90 mins by microfluidic peptide phosphorylation assay
[10] = molecular target: Casein kinase I isoform alpha (Homo sapiens) (UniProt P48729); assay: Inhibition of human full length CSNK1A1 expressed in baculovirus assessed as substrate phosphorylation using fluorescence-labelled peptides as substrate at 1000 uM after 90 mins by microfluidic peptide phosphorylation assay

Chain of Casein kinase I isoform alpha (Homo sapiens) (P48729 2-337 limits assumed): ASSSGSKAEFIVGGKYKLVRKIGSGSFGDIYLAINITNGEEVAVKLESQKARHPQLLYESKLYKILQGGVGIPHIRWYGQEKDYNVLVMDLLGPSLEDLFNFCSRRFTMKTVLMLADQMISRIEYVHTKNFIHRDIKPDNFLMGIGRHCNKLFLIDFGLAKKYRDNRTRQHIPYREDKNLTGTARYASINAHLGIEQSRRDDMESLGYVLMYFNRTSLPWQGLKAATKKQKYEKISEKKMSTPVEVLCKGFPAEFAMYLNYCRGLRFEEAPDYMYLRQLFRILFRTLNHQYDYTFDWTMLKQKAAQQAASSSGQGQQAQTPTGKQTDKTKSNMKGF
Chain of RAF proto-oncogene serine/threonine-protein kinase (Homo sapiens) (P04049 whole entry, the tested form may be a part): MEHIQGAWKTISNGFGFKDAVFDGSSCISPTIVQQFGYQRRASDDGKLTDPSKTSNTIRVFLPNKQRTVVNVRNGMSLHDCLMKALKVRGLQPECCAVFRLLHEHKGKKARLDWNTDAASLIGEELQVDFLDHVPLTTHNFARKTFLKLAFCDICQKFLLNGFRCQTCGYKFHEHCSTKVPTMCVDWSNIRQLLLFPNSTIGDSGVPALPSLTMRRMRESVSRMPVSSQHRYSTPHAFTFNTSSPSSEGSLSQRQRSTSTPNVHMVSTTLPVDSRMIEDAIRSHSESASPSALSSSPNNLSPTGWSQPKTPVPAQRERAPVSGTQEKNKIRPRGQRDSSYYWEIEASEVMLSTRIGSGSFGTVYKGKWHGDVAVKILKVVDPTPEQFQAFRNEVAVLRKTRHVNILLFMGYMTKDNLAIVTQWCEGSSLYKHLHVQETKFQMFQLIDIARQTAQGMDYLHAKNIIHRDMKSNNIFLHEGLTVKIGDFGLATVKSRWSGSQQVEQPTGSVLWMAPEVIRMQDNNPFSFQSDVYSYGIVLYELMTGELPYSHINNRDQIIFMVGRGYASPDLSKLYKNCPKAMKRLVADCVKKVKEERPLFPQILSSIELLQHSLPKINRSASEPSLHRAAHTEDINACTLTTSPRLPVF
Chain of Protein kinase C beta type (Homo sapiens) (P05771 2-671 limits assumed): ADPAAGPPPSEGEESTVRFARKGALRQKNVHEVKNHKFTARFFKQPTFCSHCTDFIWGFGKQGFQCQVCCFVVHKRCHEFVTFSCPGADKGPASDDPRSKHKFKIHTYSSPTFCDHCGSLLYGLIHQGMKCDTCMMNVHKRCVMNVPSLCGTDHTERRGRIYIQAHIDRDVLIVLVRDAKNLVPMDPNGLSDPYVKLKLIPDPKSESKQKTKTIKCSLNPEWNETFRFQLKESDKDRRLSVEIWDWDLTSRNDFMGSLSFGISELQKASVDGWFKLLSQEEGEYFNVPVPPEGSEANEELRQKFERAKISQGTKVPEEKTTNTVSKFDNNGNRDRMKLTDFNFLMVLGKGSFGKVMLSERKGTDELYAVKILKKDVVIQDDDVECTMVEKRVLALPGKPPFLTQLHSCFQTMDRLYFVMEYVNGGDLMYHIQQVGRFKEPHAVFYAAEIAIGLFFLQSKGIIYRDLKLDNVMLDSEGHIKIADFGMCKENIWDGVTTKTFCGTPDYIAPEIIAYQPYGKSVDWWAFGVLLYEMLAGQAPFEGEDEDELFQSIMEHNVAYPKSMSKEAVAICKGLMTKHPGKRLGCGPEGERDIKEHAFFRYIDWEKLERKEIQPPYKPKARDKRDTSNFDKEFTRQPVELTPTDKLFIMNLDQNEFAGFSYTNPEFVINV
Chain of Hepatocyte growth factor receptor (Homo sapiens) (P08581 whole entry, the tested form may be a part, canonical isoform): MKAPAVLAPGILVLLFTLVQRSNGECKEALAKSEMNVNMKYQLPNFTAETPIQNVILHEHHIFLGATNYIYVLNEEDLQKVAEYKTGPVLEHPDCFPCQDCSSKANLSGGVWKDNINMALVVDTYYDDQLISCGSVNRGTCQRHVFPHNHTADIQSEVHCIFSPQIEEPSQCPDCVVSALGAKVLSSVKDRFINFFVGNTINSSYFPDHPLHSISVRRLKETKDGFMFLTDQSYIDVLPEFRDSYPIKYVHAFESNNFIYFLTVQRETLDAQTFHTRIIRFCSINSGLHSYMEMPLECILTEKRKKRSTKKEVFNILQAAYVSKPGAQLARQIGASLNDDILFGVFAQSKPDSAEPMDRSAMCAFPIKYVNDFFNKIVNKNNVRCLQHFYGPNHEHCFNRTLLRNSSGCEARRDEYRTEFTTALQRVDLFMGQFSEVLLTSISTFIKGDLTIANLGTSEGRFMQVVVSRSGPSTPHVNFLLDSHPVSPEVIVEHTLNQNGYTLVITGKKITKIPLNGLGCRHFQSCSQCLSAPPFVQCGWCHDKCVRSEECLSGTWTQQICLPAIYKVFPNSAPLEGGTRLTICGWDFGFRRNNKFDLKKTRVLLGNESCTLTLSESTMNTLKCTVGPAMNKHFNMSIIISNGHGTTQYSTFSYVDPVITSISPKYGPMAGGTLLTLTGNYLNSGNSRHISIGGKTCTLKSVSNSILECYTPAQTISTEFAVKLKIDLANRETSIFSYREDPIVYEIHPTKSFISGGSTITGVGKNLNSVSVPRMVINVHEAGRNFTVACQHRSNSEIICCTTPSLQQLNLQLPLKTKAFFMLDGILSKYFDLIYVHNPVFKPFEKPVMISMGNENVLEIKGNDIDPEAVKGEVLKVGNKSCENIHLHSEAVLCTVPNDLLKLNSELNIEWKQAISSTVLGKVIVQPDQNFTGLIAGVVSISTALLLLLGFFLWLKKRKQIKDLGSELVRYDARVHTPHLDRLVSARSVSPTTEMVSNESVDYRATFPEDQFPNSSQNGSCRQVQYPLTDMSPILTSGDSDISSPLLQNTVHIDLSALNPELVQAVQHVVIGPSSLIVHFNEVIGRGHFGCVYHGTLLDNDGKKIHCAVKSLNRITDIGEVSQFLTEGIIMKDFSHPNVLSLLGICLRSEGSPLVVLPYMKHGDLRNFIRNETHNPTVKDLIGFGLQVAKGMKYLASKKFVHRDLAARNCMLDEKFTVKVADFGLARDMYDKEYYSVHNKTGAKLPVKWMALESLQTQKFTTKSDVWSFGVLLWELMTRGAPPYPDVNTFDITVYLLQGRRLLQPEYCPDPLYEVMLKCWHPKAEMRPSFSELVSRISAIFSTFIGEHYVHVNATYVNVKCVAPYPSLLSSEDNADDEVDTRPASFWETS

**Q.** What does the source list for Clc1ccc(C2(c3ccc(-c4ncnc5[nH]cnc45)cc3)CCNCC2)cc1?
**A.** inhibition [1]: 10%; inhibition [2]: 8.5%

**Q.** With COC(=O)c1cnc(Nc2cnc(C#N)cn2)cc1NCC1CCNCC1 as the compound, how does the inhibition [3] read?
**A.** 2%

**Q.** And the inhibition [4]?
**A.** 2%

**Q.** Which results are given for C[C@H](CN(C)C)Oc1nc(Nc2cc3cccc(Cl)c3cn2)cnc1C#N?
**A.** inhibition [5]: 2.5%; inhibition [6]: 4%

**Q.** For NCC1CN(c2ncnc3[nH]c4cnccc4c23)CCO1 (stereo not given), which inhibition [7] is on record?
**A.** 7.5%

**Q.** And the inhibition [8]?
**A.** 31.5%

**Q.** Which inhibition [9] does the source give for NCC1CCN(c2ncnc3[nH]ccc23)CC1 here?
**A.** 9%

**Q.** How did the inhibition [10] turn out when c1cnc2[nH]ccc2c1 was run?
**A.** 73.5%
